The source of these data is ChEMBL document CHEMBL5291721, “A preclinical secondary pharmacology resource illuminates target-adverse drug reaction associations of marketed drugs” (Nat Commun, 2023).

For one experiment, the target named is T1, Adenosine receptor A3 (Homo sapiens, UniProt P0DMS8).
T1 sequence (P0DMS8 whole entry): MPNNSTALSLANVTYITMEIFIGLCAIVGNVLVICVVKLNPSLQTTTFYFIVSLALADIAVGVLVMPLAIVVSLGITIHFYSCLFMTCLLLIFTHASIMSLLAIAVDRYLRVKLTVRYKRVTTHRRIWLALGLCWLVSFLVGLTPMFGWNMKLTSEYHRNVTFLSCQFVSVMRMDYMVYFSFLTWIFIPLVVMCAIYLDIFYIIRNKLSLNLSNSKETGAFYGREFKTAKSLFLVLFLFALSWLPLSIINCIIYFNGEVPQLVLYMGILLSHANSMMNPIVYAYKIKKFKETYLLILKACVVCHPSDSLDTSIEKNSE

Experiment [1] concerns the target T2, Alpha-2A adrenergic receptor (Homo sapiens, UniProt P08913).
T2 sequence (P08913 whole entry): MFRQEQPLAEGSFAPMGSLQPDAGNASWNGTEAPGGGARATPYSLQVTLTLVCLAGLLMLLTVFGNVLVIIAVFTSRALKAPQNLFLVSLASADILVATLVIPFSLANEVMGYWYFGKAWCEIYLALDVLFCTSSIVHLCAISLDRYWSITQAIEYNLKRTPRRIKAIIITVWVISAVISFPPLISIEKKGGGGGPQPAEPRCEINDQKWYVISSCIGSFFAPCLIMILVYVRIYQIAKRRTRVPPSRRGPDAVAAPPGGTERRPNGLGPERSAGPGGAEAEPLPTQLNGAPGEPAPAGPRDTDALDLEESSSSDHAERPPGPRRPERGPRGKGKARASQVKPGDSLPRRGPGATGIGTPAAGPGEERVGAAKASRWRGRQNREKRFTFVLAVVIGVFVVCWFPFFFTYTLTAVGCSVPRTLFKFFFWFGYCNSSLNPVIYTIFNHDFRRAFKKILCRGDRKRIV
The format is functional, cell-based.

Another experiment addresses T3, Endothelin-1 receptor (Homo sapiens, UniProt P25101).
T3 sequence (P25101 whole entry): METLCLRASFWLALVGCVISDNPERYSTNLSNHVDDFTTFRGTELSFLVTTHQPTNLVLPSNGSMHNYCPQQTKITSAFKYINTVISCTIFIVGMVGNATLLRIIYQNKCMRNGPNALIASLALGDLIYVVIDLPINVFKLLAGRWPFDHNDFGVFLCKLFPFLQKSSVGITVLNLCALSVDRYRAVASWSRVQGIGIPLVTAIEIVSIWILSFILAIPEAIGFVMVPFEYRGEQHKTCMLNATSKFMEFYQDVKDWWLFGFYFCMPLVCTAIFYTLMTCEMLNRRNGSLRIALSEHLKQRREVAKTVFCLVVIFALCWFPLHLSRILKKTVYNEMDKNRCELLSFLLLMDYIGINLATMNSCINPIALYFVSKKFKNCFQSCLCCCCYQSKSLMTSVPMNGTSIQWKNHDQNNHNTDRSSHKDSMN

The target of another experiment is Melanocortin receptor 3 (Homo sapiens, UniProt P41968).
Melanocortin receptor 3, sequence (P41968 whole entry): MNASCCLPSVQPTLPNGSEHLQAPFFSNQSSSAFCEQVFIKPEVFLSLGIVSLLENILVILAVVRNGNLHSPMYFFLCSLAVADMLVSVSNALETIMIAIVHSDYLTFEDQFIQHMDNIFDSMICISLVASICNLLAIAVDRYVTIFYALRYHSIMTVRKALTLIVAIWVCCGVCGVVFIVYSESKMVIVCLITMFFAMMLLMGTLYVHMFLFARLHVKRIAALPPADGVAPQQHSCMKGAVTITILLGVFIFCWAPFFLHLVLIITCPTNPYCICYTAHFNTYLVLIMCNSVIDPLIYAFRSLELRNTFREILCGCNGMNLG
The target of a further experiment is Motilin receptor (Homo sapiens, UniProt O43193).
Motilin receptor, sequence (O43193 whole entry): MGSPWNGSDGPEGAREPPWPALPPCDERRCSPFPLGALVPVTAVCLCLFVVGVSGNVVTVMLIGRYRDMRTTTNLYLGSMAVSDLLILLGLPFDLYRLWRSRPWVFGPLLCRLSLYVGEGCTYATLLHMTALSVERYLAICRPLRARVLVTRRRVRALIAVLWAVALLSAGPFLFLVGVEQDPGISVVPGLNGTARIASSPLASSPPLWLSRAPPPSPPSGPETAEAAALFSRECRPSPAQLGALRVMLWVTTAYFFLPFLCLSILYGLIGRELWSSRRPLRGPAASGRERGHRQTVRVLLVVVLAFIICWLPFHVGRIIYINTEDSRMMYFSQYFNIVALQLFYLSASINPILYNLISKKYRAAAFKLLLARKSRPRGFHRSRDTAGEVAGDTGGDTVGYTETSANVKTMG
Experiment [2] concerns the target 3',5'-cyclic-AMP phosphodiesterase 4D (Homo sapiens, UniProt Q08499). The format is functional.
A further experiment deals with T4, Thromboxane A2 receptor (Homo sapiens, UniProt P21731).
T4 sequence (P21731 whole entry): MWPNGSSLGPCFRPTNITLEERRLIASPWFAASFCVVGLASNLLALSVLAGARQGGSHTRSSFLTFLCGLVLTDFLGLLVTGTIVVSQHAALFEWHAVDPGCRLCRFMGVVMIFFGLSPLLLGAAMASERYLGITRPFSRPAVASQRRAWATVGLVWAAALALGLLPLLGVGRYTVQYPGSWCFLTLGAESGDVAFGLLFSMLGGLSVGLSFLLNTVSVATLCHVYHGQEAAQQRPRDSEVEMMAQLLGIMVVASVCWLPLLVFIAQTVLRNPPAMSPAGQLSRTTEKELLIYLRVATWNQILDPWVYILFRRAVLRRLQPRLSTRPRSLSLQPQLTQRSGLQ

In experiment [3] the target is Sodium-dependent noradrenaline transporter (Homo sapiens, UniProt P23975).
Sodium-dependent noradrenaline transporter, sequence (P23975 whole entry): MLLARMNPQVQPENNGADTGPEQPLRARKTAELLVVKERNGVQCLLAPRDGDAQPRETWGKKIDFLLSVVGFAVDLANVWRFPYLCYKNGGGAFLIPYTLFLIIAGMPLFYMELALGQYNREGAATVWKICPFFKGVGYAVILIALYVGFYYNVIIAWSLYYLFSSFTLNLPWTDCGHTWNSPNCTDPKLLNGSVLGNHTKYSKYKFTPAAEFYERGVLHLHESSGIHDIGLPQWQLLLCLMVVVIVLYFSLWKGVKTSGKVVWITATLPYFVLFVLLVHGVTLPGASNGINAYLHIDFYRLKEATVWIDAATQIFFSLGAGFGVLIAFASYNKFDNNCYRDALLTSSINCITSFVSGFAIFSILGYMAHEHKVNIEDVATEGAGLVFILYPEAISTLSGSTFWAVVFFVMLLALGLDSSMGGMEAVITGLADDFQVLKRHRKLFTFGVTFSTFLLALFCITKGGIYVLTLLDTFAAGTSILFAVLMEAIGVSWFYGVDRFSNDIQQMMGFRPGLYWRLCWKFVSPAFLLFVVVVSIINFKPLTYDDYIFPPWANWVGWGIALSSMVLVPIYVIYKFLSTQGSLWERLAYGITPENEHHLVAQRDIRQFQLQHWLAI
Experiment [4] deals with Delta-type opioid receptor (Homo sapiens, UniProt P41143).
Delta-type opioid receptor, sequence (P41143 whole entry): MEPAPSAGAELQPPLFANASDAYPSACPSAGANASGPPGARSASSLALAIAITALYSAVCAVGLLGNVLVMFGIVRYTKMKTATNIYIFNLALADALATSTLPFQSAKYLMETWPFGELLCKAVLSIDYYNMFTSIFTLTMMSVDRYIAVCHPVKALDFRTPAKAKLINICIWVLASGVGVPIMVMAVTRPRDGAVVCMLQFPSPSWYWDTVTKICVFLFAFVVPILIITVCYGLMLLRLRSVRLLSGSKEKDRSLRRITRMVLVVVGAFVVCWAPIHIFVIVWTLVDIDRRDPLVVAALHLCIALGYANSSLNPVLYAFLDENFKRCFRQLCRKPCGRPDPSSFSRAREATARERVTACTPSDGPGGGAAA
Experiment [5] deals with T5, 5-hydroxytryptamine receptor 1A (Homo sapiens, UniProt P08908).
T5 sequence (P08908 whole entry): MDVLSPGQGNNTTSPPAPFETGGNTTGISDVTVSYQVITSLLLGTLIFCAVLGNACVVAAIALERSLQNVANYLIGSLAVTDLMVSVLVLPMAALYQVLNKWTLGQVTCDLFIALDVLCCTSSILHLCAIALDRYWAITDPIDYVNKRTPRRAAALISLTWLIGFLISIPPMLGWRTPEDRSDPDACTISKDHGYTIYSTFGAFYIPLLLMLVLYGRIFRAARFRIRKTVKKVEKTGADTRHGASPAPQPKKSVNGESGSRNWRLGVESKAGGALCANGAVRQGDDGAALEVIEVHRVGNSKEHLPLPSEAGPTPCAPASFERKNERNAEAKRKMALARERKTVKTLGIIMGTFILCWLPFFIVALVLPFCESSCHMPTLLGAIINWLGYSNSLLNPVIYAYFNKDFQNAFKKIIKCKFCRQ
The format is functional, cell-based.

Experiment [6] deals with Beta-2 adrenergic receptor (Homo sapiens, UniProt P07550).
Beta-2 adrenergic receptor, sequence (P07550 whole entry): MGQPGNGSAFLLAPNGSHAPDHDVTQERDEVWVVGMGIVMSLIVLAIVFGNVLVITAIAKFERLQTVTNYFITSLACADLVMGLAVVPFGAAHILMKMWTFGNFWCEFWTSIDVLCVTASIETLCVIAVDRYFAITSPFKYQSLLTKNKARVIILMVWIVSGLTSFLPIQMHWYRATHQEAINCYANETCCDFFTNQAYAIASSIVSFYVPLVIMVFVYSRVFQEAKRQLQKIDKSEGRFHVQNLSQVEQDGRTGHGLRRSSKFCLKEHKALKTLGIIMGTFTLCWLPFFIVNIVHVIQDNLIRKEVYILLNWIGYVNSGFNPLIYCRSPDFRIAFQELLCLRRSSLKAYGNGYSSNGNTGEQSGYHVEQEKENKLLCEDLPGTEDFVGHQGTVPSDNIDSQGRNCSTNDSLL
Also: assay procedure not described here.

3',5'-cyclic-AMP phosphodiesterase 4D, sequence (Q08499 whole entry): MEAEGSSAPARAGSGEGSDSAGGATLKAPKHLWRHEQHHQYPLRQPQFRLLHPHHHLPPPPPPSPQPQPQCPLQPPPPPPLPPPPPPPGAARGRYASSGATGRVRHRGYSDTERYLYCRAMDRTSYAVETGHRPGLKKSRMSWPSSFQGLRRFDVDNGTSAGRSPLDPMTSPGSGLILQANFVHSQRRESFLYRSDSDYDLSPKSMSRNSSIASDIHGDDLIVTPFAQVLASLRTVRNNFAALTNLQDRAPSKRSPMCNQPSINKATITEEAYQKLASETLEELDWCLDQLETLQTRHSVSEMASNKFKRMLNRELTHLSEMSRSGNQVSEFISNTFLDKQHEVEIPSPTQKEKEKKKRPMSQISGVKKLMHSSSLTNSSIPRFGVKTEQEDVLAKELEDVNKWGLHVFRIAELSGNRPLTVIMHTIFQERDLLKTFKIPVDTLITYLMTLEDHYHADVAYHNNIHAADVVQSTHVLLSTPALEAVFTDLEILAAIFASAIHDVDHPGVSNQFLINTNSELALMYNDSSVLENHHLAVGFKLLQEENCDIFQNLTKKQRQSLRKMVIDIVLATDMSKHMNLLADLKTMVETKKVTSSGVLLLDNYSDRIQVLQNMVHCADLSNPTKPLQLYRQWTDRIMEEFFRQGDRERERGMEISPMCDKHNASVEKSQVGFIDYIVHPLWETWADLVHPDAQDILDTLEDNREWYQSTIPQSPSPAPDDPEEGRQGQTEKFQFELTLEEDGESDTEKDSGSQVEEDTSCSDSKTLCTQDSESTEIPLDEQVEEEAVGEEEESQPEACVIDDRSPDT

In the case of `C=C[C@@]1(C)CC(=O)[C@]2(O)[C@@]3(C)[C@@H](O)CCC(C)(C)[C@@H]3[C@H](OC(=O)CCN(C)C)[C@H](OC(C)=O)[C@@]2(C)O1`, the AC50 at Adenosine receptor A3 was > 30 µM; in experiment [1] it was > 30 µM; at Endothelin-1 receptor it was > 30 µM; on Melanocortin receptor 3, > 30 µM; on Motilin receptor, 7.8 µM; in [2], > 30 µM. For the same molecule, the half-maximal activity concentration (AC50) (at Thromboxane A2 receptor; in [3]) was > 30 µM throughout.

`Nc1ccc(C(=O)O)c(O)c1` [AMINOSALICYLIC ACID]: the AC50 (at Adenosine receptor A3; in [1]; on Endothelin-1 receptor; on Melanocortin receptor 3; at Motilin receptor; in experiment [4]) was > 30 µM each time. Also, the concentration at half-maximal activity (AC50) (in experiment [2]; on Thromboxane A2 receptor; in experiment [3]) was > 30 µM in each case.

As to `COCCOC(=O)C1=C(C)NC(C)=C(C(=O)OC/C=C/c2ccccc2)C1c1cccc([N+](=O)[O-])c1` (stereo unspecified) [CILNIDIPINE], the concentration at half-maximal activity (AC50) on Adenosine receptor A3 was 4.8 µM; in experiment [1], > 30 µM; at Endothelin-1 receptor, > 30 µM; in experiment [5] it was > 30 µM; on Melanocortin receptor 3, > 30 µM; on Motilin receptor, 24 µM. The concentration at half-maximal activity (AC50) in experiment [4] is > 30 µM; in experiment [2], 8.2 µM; at Thromboxane A2 receptor, 21 µM; in [3], > 30 µM.

Take `CC(C)(C)NCC(O)c1cc(Cl)c(N)c(Cl)c1` (stereo unspecified) [CLENBUTEROL]: the half-maximal activity concentration (AC50) (on Adenosine receptor A3; in [1]; at Endothelin-1 receptor; in [5]; on Melanocortin receptor 3; at Motilin receptor) was > 30 µM throughout. Further, the AC50 in experiment [4] was > 30 µM; in [2], > 30 µM; on Thromboxane A2 receptor it was > 30 µM; in experiment [3], 27.9 µM.

`COc1cccc2c1C(=O)c1c(O)c3c(c(O)c1C2=O)C[C@@](O)(C(C)=O)C[C@@H]3O[C@H]1C[C@H](N)[C@H](O)[C@H](C)O1` [DAUNORUBICIN]: the AC50 is 26.5 µM at Adenosine receptor A3; > 30 µM in experiment [6]; > 30 µM on Endothelin-1 receptor; 29 µM at Melanocortin receptor 3; > 30 µM on Motilin receptor; 16.2 µM in experiment [4]. The values for the AC50 (in experiment [2]; on Thromboxane A2 receptor; in [3]) were 22 µM, 25 µM and 10.4 µM, respectively.

Turning to `C[C@@H]1C[C@H]2[C@@H]3C[C@H](F)C4=CC(=O)C=C[C@]4(C)[C@@]3(F)[C@@H](O)C[C@]2(C)[C@H]1C(=O)CO` [DIFLUCORTOLONE], the concentration at half-maximal activity (AC50) (on Adenosine receptor A3; at Melanocortin receptor 3; in [4]; in [2]; in [3]) was > 30 µM in each case.

As for `CC1(C)C(/C=C/C=C/C=C/C=C2\N(CCCCS(=O)(=O)O)c3ccc4ccccc4c3C2(C)C)=[N+](CCCCS(=O)(=O)[O-])c2ccc3ccccc3c21` [INDOCYANINE GREEN ACID FORM], the AC50 at Adenosine receptor A3 was 3 µM; in [1], > 30 µM; on Endothelin-1 receptor, > 30 µM; in experiment [5], > 30 µM; at Melanocortin receptor 3, > 30 µM; on Motilin receptor it was 23 µM. Also, the AC50 in experiment [4] was determined as 9.7 µM; in [2] it was 2.3 µM; in [3], 5.2 µM.

Turning to `CC(C)OC(=O)C(C(=O)OC(C)C)=C1SC=CS1` [MALOTILATE], the half-maximal activity concentration (AC50) (on Adenosine receptor A3; in [1]; in experiment [6]; at Endothelin-1 receptor; on Melanocortin receptor 3; at Motilin receptor) was > 30 µM throughout. For the same molecule, the AC50 in experiment [4] was > 30 µM; in experiment [2], 4.2 µM; on Thromboxane A2 receptor it was > 30 µM; in experiment [3] it was > 30 µM.

As to `C[n+]1ccccc1/C=N/O` [PRALIDOXIME], the concentration at half-maximal activity (AC50) was > 30 µM in [1], > 30 µM in [5], > 30 µM in experiment [4] and 24 µM in experiment [2].

As for `CN1CCN(c2c(F)cc3c(=O)c(C(=O)O)cn4c3c2SCC4)CC1` [RUFLOXACIN], the AC50 (at Adenosine receptor A3; in experiment [1]; at Endothelin-1 receptor; on Melanocortin receptor 3; at Motilin receptor; in experiment [4]) was > 30 µM in each case. Further, the AC50 (in [2]; on Thromboxane A2 receptor) was > 30 µM each time.

Turning to `COc1c(O[C@@H]2O[C@H](CO)[C@@H](O)[C@H](O)[C@H]2O)cc2c(c1OC)-c1ccc(SC)c(=O)cc1[C@@H](NC(C)=O)CC2` [THIOCOLCHICOSIDE], the AC50 (at Adenosine receptor A3; in experiment [1]; on Endothelin-1 receptor; in experiment [5]; on Melanocortin receptor 3; on Motilin receptor) was > 30 µM each time. The concentration at half-maximal activity (AC50) (in experiment [4]; in experiment [2]; at Thromboxane A2 receptor; in [3]) was > 30 µM throughout.

In the case of `CC(C)(C)NC[C@H](O)COc1nsnc1N1CCOCC1` [TIMOLOL], the AC50 at Adenosine receptor A3 is > 30 µM; in experiment [1], > 30 µM; at Endothelin-1 receptor, > 30 µM; in experiment [5], 4.2 µM; at Melanocortin receptor 3 it was > 30 µM; on Motilin receptor, > 30 µM. The half-maximal activity concentration (AC50) (in experiment [4]; in experiment [2]; at Thromboxane A2 receptor; in experiment [3]) was > 30 µM each time.

Regarding `COc1cc2nccc(Oc3ccc(NC(=O)Nc4cc(C)on4)c(Cl)c3)c2cc1OC` [TIVOZANIB], the AC50 on Adenosine receptor A3 is > 3 µM; in experiment [6], > 3 µM; on Melanocortin receptor 3, > 3 µM; in experiment [2] it was 27 µM; on Thromboxane A2 receptor, > 3 µM; in experiment [3] it was > 3 µM.

Consider `CN1[C@@H]2CC[C@H]1C[C@@H](OC(=O)c1c[nH]c3ccccc13)C2` [TROPISETRON], for which the AC50 (at Adenosine receptor A3; in experiment [1]; on Endothelin-1 receptor; on Melanocortin receptor 3; on Motilin receptor; in [2]) was > 30 µM each time. On Thromboxane A2 receptor, the AC50 was > 30 µM.

As for `COc1ccc(C(CN(C)C)C2(O)CCCCC2)cc1` (stereo unspecified) [VENLAFAXINE], the AC50 at Adenosine receptor A3 is > 30 µM; in experiment [1], > 10 µM; in experiment [6] it was > 10 µM; at Melanocortin receptor 3, > 30 µM; on Motilin receptor, > 10 µM; in experiment [4], > 30 µM. Moreover, in experiment [2], the half-maximal activity concentration (AC50) was > 10 µM.

In the case of COLISTIN, the half-maximal activity concentration (AC50) in experiment [1], in [5], in [4] and in experiment [2] was > 30 µM in each case.

What is called AC50 is the concentration at which the activity in the assay is half-maximal. A high value points to weaker potency.
